# Measurements from patent publication US6482799B1, “Self-preserving multipurpose ophthalmic solutions incorporating a polypeptide antimicrobial” (The Regents of the University of California, priority 1999, dated 2002).
# Key:
# [1] = Toxicity study, intraperitoneal administration
# Procedure: The objective of this study was to determine if the treatment regimen proposed for the efficacy study of the defensin formulations caused target organ toxicity. This study is not intended to support application for research or marketing permits for products regulated by governmental agencies. The purpose of this study is to provide range-finding data is therefore, not within the scope of Good Laboratory Practice Guidelines.
# Mice were treated by intravaginal administration twice daily at ˜12 hour intervals administered on Days 1 through 4. Mice were treated intraperitoneally three times on Day 1 at ˜4 hour intervals, and twice daily at ˜12 hour intervals administered on days 2 through 4.
# Dosing volumes were 0.1 mL/mouse (intravaginal), 0.1 mL/mouse (intraperitoneal), and 20 μL/rabbit. The study lasted 5 days, with day 1 the first day of dose administration.
# The dose formulations were supplied in pyrogen-free saline.
# [2] = 4.97 mg dry powder
# Procedure: 4.97 mg of L-IND #036752, stored at 4° C. in a desiccation) was weighed into a polypropylene microfuge and dissolved in 0.01% acetic acid.
# [3] = test system: Staphylococcus aureus (ATCC 6538); assay: Short-term (14 day) stability in commercial plastic container (RENU) by S. aureus bioassay; type: cell-based; details: for stability of antimicrobial activity: room temperature, plastic container
# Text: The objective of this study was to determine if there is significant and rapid binding of L-IND to a typical plastic bottle such as the type to be used to store, ship and use the lens-care solution. The 2-week study reported here was a range-finding task to determine if there was substantial binding and incompatibility, and its results helped plan a more extensive stability study over a period of 8 months.
# The two commercial containers were used that previously contained the commercial product RENU®, a multi-purpose solution for all soft contact lenses not requiring enzymatic cleaning, and manufactured by Bausch & Lomb. These containers hold a volume of 89 ml and came with a dispenser that precludes the removal of the cap, which aids in keeping the solution sterile. The lot number of the RENU® lens-care solutions used was GE7089, having an expiration date of May 1999.
# The containers were prepared for the L-IND stability study by discarding the RENU® lens care solution, and by rinsing, 3 times with either sterile 10 mM sodium phosphate buffer (SP), pH 7.4 or 10 mM SP supplemented with 0.85 % (w/v) sodium chloride (SP+NaCl).
# The test article, L-IND peptide solution, was prepared fresh from dry L-IND powder (Lot #036752). Two solutions were prepared for evaluation, to a final concentration of 50 μg/ml in 50 ml of 10 mM SP and 10 mM SP+NaCl. For this purpose a stock solution was prepared by weighing out 5 mg of L-IND and dissolving it in 10 ml of 0.01% acetic acid in a pyrogen free sterile Teflon container. A 10-fold dilution of this stock was then made by transferring 5 ml of the stock solution to each of the containers to which was then added 45 ml of either 10 mM SP or 10 mM SP+NaCl. After mixing by slowly shaking, the solutions were maintained at room temperature for the duration of the study.
# It should be noted that the 5 ml of the L-IND stock solution was added to the empty containers. This was followed by addition of 45 ml of the respective buffer systems. The addition of peptide concentrate to the empty containers would enhance binding of the peptide to the plastic. Had excessive binding resulted, a less stringent procedure of adding the peptide concentrate to bottles prefilled with buffer would have been adopted in subsequent experiments.
# The stability of L-IND in each container was determined at times 0 h, 24 h, 48 h, 72 h, 7 d, 10 d and 14 d. At each sampling point, the contents of each of the two containers was shaken gently 3 times in a back and forth rocking motion. Three aliquots of about 1.5 ml of the solutions containing L-IND were removed. One aliquot was used immediately for determining the stability of L-IND by exposure to Staphylococcus aureus (see below). The other aliquots were stored in the freezer (−20° C.). One of these aliquots was kept until the end of the monitoring period, which was 14 days. At that time all the frozen samples were thawed and tested for stability of L-IND by bioassay.
# Staphylococcus aureus (ATCC 6538) obtained directly from the American Type Culture Collection was the test organism. The bacterium was grown overnight at 37° C. in 5 ml of Mueller-Hinton (MH) broth on a shaking platform (180 rpm). The overnight culture was washed 2 times in sterile saline by centrifugation at 7,000 RPM. One half of the cells were then resuspended in 2.5 ml of sterile 10 mM SP, while the other half was resuspended in 2.5 ml of 10 mM SP+NaCl. Each washed culture was then diluted to give an estimated 10^7 colony-forming-units (CFU) per […].
# S. aureus was exposed at room temperature to each of the samples, removed at the different time points, for 0, 15 and 60 minutes, and for 4 hours. For this purpose 0.25 ml of each L-IND solution was dispensed into wells of a 96-well polypropylene titer plate. A volume of 20 μl of the 10× washed bacterial suspension was then added to each well. The estimated cell density thus obtained per well was about 10^6 CFU/ml. […]
structure (smiles),measurement,setting,value
"CC[C@H](C)[C@H](N)C(=O)N[C@@H](CC(C)C)C(=O)N1CCC[C@H]1C(=O)N[C@@H](Cc1c[nH]c2ccccc12)C(=O)N[C@@H](CCCCN)C(=O)N[C@@H](Cc1c[nH]c2ccccc12)C(=O)N1CCC[C@H]1C(=O)N[C@@H](Cc1c[nH]c2ccccc12)C(=O)N[C@@H](Cc1c[nH]c2ccccc12)C(=O)N1CCC[C@H]1C(=O)N[C@@H](Cc1c[nH]c2ccccc12)C(=O)N[C@@H](CCCNC(=N)N)C(=O)N[C@@H](CCCNC(=N)N)C(N)=O [L-indolicidin, H2N-ILPWKWPWWPWRR-CONH2]",gross alterations,"[1]; 0.1 mL/mouse at 10, 100 or 1000 μg/mL, BPN-A-amide at 30, 300 or 3000 μg/mL",no gross alternations
same,deaths or clinical signs of toxicity,"[1]; L-indolicidin 10, 100 or 1000 μg/mL, D-indolicidin 10 or 1000 μ/mL, All-Phe-indolicidin 10 μg/mL, BPN-A-amide 30, 300 or 3000 μg/mL",no deaths or biologically significant clinical signs of toxicity
same,Solubility in 0.01% acetic acid,[2],went into solution immediately
same,stability of antimicrobial activity,"[3]; 50 μg/ml in 10 mM SP+NaCl (0.85%), 14 days",stable
same,stability of antimicrobial activity,"[3]; 50 μg/ml in 10 mM SP, 14 days",stable
same,adsorption to the plastic container,"[3]; 50 μg/ml, 14 days",no obvious or dramatic adsorption
same,log kill,"[3]; 50 μg/ml, frozen samples, 10 mM SP+NaCl, 4 hours exposure",about 1.5 log
same,log kill,"[3]; 50 μg/ml, frozen, 10 mM SP, 60 minute exposure",6 log
same,log kill,"[3]; 50 μg/ml, unfrozen, 10 mM SP+NaCl (0.85%), 4 hours exposure",~1 log
same,log kill,"[3]; 50 μg/ml, unfrozen, 10 mM SP, 4 hours exposure",4 log
